Data as given in patent US20250275993A1, “GLYCOSYLATION INHIBITORS AS THERAPEUTICS FOR STROKE” (The Regents of the University of California, priority 2022, published 2025).

Columns and labels:
VEGFR2 = VEGFR2 western blot in BCECs (molecular mass, phosphorylation, PNGase F); type: cell-based, bovine; conditions: VEGF at 5 ng/ml for 24 hours
Experimental: Glycerol-free PNGase F was obtained from New England Biolabs (Ipswich, MA). Briefly, BCECs were lysed with NP-40 containing proteinase inhibitors (Thermo Scientific, Waltham, MA). Lysates were cleared at 4° C. at 5000 g for 25 mins. Total protein content was measured using Pierce BCA protein assay kit (Thermo Scientific). 20 mg of protein was mixed with 10× denaturing buffer and H2O to a total volume of […]. Glycoproteins were denatured at 100° C. for 10 mins, followed by adding Glycobuffer and PNGase F. The reaction was carried out at 37° C. for 2 hr.
Cells were allowed to reach-80% confluency in 12-well plates. […] At various time points, plates were taken out of the incubator and kept on ice. […] Lysates were collected and mixed with 4× Bolt LDS Sample Buffer (Novex, Carlsbad, CA) in the presence of Halt protease inhibitors and phosphatase inhibitor cocktail (ThermoFisher scientific, #NP0007). […] HUVECs (passage 6-8) were plated in EBM-2 basal medium (Lonza) with 0.2% FBS. Following overnight culture, cells were serum-starved in EBM-2 medium for 4 hrs prior to treatment with 50 ng/ml of VEGF165 or vehicle controls for various lengths. Equal amounts of protein lysates were analyzed by SDS-PAGE and blotted with the indicated antibodies. Proteins were transferred using Tris-Glycine buffer with 20% Methanol (Proteonomics grade) (Apex BioResearch Products). Membranes were first incubated with 5% milk in TBST, pH 7.6 (TEKnova, Hollister, CA), followed by blotting with primary and secondary antibodies. ECL anti-rabbit IgG, horseradish peroxidase linked whole antibody from donkey or sheep anti-mouse were obtained from GE Healthcare (UK limited). SuperSignal West Dura Extended Duration substrate was from ThermoFisher Scientific. In some cases, the same PVDF membranes were stripped by 8-min incubation in the Restore Plus Western Blot Stripping Buffer (ThermoFisher Scientific) to show total specific protein expression, followed by second stripping for (3-actin expression.

skin wound = assay: Skin wound healing model (splinted wound); type: in vivo, mouse; conditions: topical 20 μg daily; mice; PBS group 81.5%
Description: The model has been previously described. Briefly, C57BL/6 female mice (8-10 weeks old) were obtained from Jackson labs (Sacramento, CA). A fresh, full-thickness punch wound (4 mm diameter) using a punch (Acu Punch, Acuderm inc. Ft. Lauderdale, FL) splinted with a sterile neoprene ring (6-mm outer diameter and 4-mm inner diameter), fastened with 5-6 sutures (4-0 nylon) under the influence of Isoflurane was created on the back of the animal in a Class II Biological Safety Cabinet. For all surgical procedures, sterile technique was followed. Buprenorphine was given subcutaneously prior to awakening from anesthesia for anticipated pain. Mice were monitored until fully awake and were housed individually to minimize damage/biting/fighting to the surgical site. […] Treatment agents were prepared in PBS, sterile-filtered and 25 μl solution was applied daily directly to a wound bed for the first 4-5 days under the influence of Isoflurane, followed by daily observation. Wound closure was monitored by regular imaging and the wound area was quantified using ImageJ (National Institutes of Health, Bethesda, MD, USA). […] Epithelial gap was measured histomorphometrically using AxioVision LE Rel.4.4 software. […] Small vessels stained positive for CD31 were counted microscopically on 10 fields (20×) taken around the wound.

[1] = test system: BCEC confluent monolayers; assay: BCEC scratch assay; type: cell-based, bovine; conditions: 40 μM ManN or 50 ng/ml of VEGF; after 48 hours
Experimental: BCECs (passage 6-10) and HUVEC (passage 6-8) were used in this assay. Cells were grown until about 80% confluency in 6-well plates, washed twice with PBS and then starved in serum-free DMEM (low Glucose, Hyclone) for 5 hrs before making a “scratch” using 1 ml tip. Cell monolayers were briefly washed once with serum-free media, followed by various treatments in media containing 1% FBS. 48 hrs later, the assay was stopped by adding 2 ml 4% paraformaldehyde. 20 min later, fixed cells were stained with 1 ml Crystal Violet (Sigma). Plates were washed gently under the running tap water and air-dried before taking pictures. Images were acquired by ZEISS Discovery […] microscopy equipped with […] camera. Quantification of wound closure was done using AxioVision LE Rel.4.4 software. Six images were taken for each sample and six measurements (in pixel) were made on each image using AxioVision LE Re1.4.4 software.

VEGF
effect of VEGF alone on VEGFR2 molecular mass (VEGFR2): no effect on molecular mass | average closure of the wound on day 4 (skin wound): 66.9% | closure of the scratched area vs control [1]: significantly accelerated BCEC migration and/or proliferation
